The melting point is the temperature of the solid-liquid transition. Molecule `CCCCCCCCCCCCCCOCCOCCOCCOCCOCCOCCO` gave a melting point of 32.5 °C.

`Nc1c(Cl)ncnc1Cl`: the melting point stood at 145 °C.

In turn, `CC(C)(C)OC(=O)C1(S(=O)(=O)c2ccc(Cl)cc2)CC1` returned a melting point of 110 °C.

For `O=[N+]([O-])c1cc([N+](=O)[O-])c(C(Cl)C(Cl)c2ccccc2)cc1/C=C\c1ccccc1` (stereo not drawn), the melting point worked out at 181 °C. The value for `Cc1cccc2sc3nncn3c12` was 187 °C. Consider `NNC(=O)c1ccc(-c2ccccc2F)cc1`, for which the melting point fell in the range of 153 to 155 °C.

`Clc1nccc(-c2ccccc2)n1` returned a melting point of 86 to 87 °C. With `CCN1CCCC1CNC(=O)c1cc(S(=O)(=O)CC)ccc1OC` (stereo not drawn), the melting point came out at 182 °C.

As to `C=C(C)C1CCC2(CO)CCC3(C)C(CCC4C5(C)CCC(O)C(C)(C)C5CCC43C)C12` (stereo not drawn), the melting point turned out to be 250 °C. The value for `O=C(O)c1ccc(C(F)(F)F)cc1C(F)(F)F` was 109 to 113 °C.

Consider `CCCN(CCC)C(=O)C(CCC(=O)O)NC(=O)c1ccccc1` (stereo not drawn), for which the melting point was found to be 142 °C.

Molecule `C=C(C)CC(C)=O` returned a melting point of -72.6 °C.

In turn, `Cc1nccnc1O` came in with a melting point of 153 °C. The value for `CN(C)c1ccc(C2C(C#N)=C(N)SC(N)=C2c2nc3ccccc3s2)cc1` (stereo not drawn) was 211 °C; that for `ClCc1cc2cc(Br)ccc2o1` was 63 to 64 °C.

With `CCOC(=O)c1c(N)sc2c1CCCCC2`, the melting point is 89 to 90 °C. As for `c1cc(-c2cnc3ccccc3n2)cc(-c2cnc3ccccc3n2)c1`, the melting point lay within 202 to 203 °C. As for `CCC(=O)C(=O)CC`, the figure is -10 °C; as for `C#CCCCCC`, -81 °C. Regarding `CC(=O)N1CCC[C@H]1C(=O)O`, the melting point worked out at 118 °C. `O=C1c2ncccc2-c2cccnc21` had a melting point of 229 °C.

`CCCCCC=CCC=CCCCCCCCC(=O)OC` came in with a melting point of -35 °C.

Molecule `COC(=O)CC[C@H](N)C(=O)O` gave a melting point of 182 °C. On to `Clc1nccc(-c2ccco2)n1`, for which the melting point was 81.5 to 82.5 °C. The value for `O=C(C1=NOC2C(=O)N(c3ccc(O)cc3)C(=O)C12)c1ccc([N+](=O)[O-])cc1` (stereo not drawn) was 213 °C; that for `CC(=O)c1cc(Cl)sc1Cl` was 38 °C; that for `OC1COC(Oc2ccc3cc(Br)ccc3c2)C(O)C1O` (stereo not drawn) was 190 to 196 °C. Molecule `CC(O)Cn1c(=O)c2c(ncn2C)n(C)c1=O` (stereo not drawn) yielded a melting point of 141 °C. In turn, `Nc1ccc(OC(F)(F)F)c(Cl)c1` displayed a melting point of 30 °C.

Take `CC(=O)Oc1ccc(OC(C)=O)c2ccccc12`: the melting point was 124 °C. The value for `CCOC(=O)c1cc2c(=O)oc3ccccc3c2[nH]c1=O` was 313 to 315 °C. The value for `O=C(CC(=O)C(F)(F)F)c1ccco1` was 20.5 °C; that for `CC(C)(OCc1ccc(-c2ccc(Cl)cc2)cc1)C(=O)O` was 154 °C. As for `Nc1c(Br)cc(Br)cc1C(=O)O`, the figure is 235 to 236 °C. As for `COc1cc(I)cc(C=O)c1O`, the melting point was found to be 129 °C. `OCC1CCN(c2ncccn2)CC1`: the melting point was 52 to 54 °C. As for `O=C(c1ccc(Cl)c([N+](=O)[O-])c1)C1CC1`, the figure is 78 to 80 °C; as for `C=CC/C=C/C`, -139 °C. The value for `O=C(c1ccc(F)cc1)c1ccc([N+](=O)[O-])cc1` was 87 to 89 °C; that for `CCOC(=O)C(C/C=C1\OC(=O)C(OC)=C1OC)S(=O)(=O)c1ccccc1` (stereo not drawn) was 99 to 101 °C. `NNc1ccc(S(=O)(=O)O)cc1` returned a melting point of 286 °C.

The molecule `COc1cc(Br)cc(C=O)c1O` came in with a melting point of 129 to 131 °C.

Turning to `O=[N+]([O-])c1ccccc1-c1onc(-c2ccccc2)c1-c1ccccc1`, the melting point stood at 127 °C. As for `Brc1cccc(-c2cc[nH]n2)c1`, the figure is 73 to 74 °C; as for `C=C1C(C(=O)O)C1C(=O)O` (stereo not drawn), 197 to 201 °C; as for `Oc1cc(F)ccc1F`, 38 °C. The value for `CC(=O)NC1C(O)OC(CO)C(O)C1OC(C)C(=O)O` (stereo not drawn) was 125 °C. The molecule `CCCCCCCCCCc1cc(-c2cc(-c3ccccc3)c3ccccc3n2)sc1-c1sc(-c2cc(-c3ccccc3)c3ccccc3n2)cc1CCCCCCCCCC` came in with a melting point of 21.9 °C.

As to `CC(C)(C)NC(=S)c1cc(C(C)(C)C)c(O)c(C(C)(C)C)c1`, the melting point lay within 203 to 204 °C.

`CCOc1cc(Cl)c(N)c(Cl)c1` came in with a melting point of 46 °C. `NC(=O)n1c(C2CCCCC2)nn(-c2ccccc2)c1=O` displayed a melting point of 198 °C. As for `CCOC(=O)CSc1sc(C(=O)OCC)c(N)c1C#N`, the figure is 141 °C. As for `N#Cc1c(F)c(F)cc(F)c1F`, the figure is 34 °C; as for `CCOC(=O)c1c(C)nsc1N`, 111 to 113 °C.

Turning to `C1CSCS1`, the melting point is -50 °C. The value for `O=C(CCCCl)c1ccc(Br)cc1` was 37 °C; that for `O=Cc1ccc(-c2cncnc2)cc1` was 147 to 148 °C. `Sc1nc(-c2ccccc2)cs1` displayed a melting point of 174 °C. As for `COc1c(Cl)ccc(Cl)c1Cl`, the melting point came to 45 °C.

For the molecule `O=Cc1cccn1-c1cc(Cl)cc(Cl)c1`, the melting point fell in the range of 150 to 152 °C. Take `O=C1OCCC1N(C(=O)C1CC1)c1cccc(Cl)c1` (stereo not drawn): the melting point came to 95 °C.

Take `CC(=O)c1cccc(N=C=S)c1`: the melting point was in the range of 26 to 28 °C. As for `O=C(c1ccccc1)C(Br)c1ccccc1` (stereo not drawn), the figure is 53 to 58 °C. As for `NC(=S)c1ccc(-c2csnn2)cc1`, the figure is 223 to 228 °C; as for `O=C(O)[C@@H]1CSCN1C(=O)OCC1c2ccccc2-c2ccccc21`, 156 to 158 °C. The value for `O=[N+]([O-])c1cccnc1Oc1cncc(Cl)c1` was 104 to 105 °C; that for `COc1ccc(C(=O)/C=C(\C)c2ccc(OC)cc2)cc1` was 86 to 87 °C; that for `Cc1ccc(C)c2c1COC2=O` was 88 °C. `Brc1ccc(C#Cc2ccc(Br)cc2)cc1` registered a melting point of 182 to 184 °C. The value for `Nc1cc(C(Cl)=C(Cl)Cl)c(S(N)(=O)=O)cc1S(N)(=O)=O` was 203 °C; that for `CC12CCCCC1(C)C1CCC3(C)C(O)CCC3(C)C1CC2` (stereo not drawn) was 167 °C; that for `C/C(=N\c1ccc(C(=O)O)c(O)c1)c1c(O)c2ccccc2n(-c2ccccc2)c1=O` was 177 °C. On to `O=C1/C(=C/c2ccccc2)SC(=S)N1CN1CCOCC1`, for which the melting point is 121 °C.

Regarding `CCN(CC)C(N)=O`, the melting point fell in the range of 66 to 71 °C. As for `CC(=O)Nc1cccc2ccccc12`, the figure is 156 to 160 °C. The value for `O=Cc1cccn1-c1ccc(C(F)(F)F)cc1` was 97 to 98 °C; that for `COC(=O)c1ccc(Oc2cccnc2)o1` was 78 to 79 °C; that for `CN(N)C(=O)c1ccccc1N` was 69 to 71 °C.

In turn, `C1CN(CCN2CCOCC2)CCO1` displayed a melting point of 75 °C.

Turning to `C1=CC2CC1[C@@H](P(c1ccccc1)c1ccccc1)[C@@H]2P(c1ccccc1)c1ccccc1`, the melting point is 120 to 125 °C. Take `O=C(O)C1(C(=O)O)CCC1`: the melting point is 157 to 161 °C. Take `COC(=O)c1noc(C)c1C(C)=NO`: the melting point lay within 121 to 124 °C.

Turning to `O=C(Oc1ccccc1)c1ccc2ccccc2c1O`, the melting point was in the range of 93 to 97 °C. `O=C1C=C(NCc2ccccn2)C(=O)c2ccccc21`: the melting point amounted to 149 °C.

Consider `CC(=O)N(c1ccccc1)c1nc(CCl)cs1`, for which the melting point lay in the range of 113 to 115 °C.

Regarding `COc1cc(C=CC(=O)O)cc(OC)c1`, the melting point lay in the range of 173 to 176 °C.

With `O=C(O)c1ccc[nH]c1=S`, the melting point turned out to be 270 °C.

The molecule `COc1ccccc1OCC(O)COC(N)=O` (stereo not drawn) showed a melting point of 93 °C.

The molecule `CNN` came in with a melting point of -21 °C.

`NCCCCCCCCN` came in with a melting point of 52 °C.

As to `c1ccc(Nc2ccc3ccccc3c2)cc1`, the melting point was determined as 108 °C. As for `Cc1cc(C(F)(F)F)cc(=O)[nH]1`, the figure is 130 °C. For the molecule `Cc1n[nH]c(C)c1N`, the melting point was 192 °C. The value for `Cc1ccc(C=C[N+](=O)[O-])cc1` was 96 to 99 °C; that for `CC(C)N(C(=O)CCl)c1ccccc1` was 77 °C; that for `FC(F)C(F)(F)Cl` was -117 °C. The value for `CC1(C)C2CC3C(C2)C31C` was 67.5 °C. With `O=C(O)C12CC3CC(C1)CC(C(F)(F)C(F)C(F)(F)F)(C3)C2` (stereo not drawn), the melting point is 115 to 117 °C. Turning to `CC(=O)C=Cc1ccc(C=CC(C)=O)cc1`, the melting point is 163 °C. As for `O=C(O)C=CC(=O)Nc1ccc(Cl)cc1`, the figure is 200 to 203 °C. With `CC(=Cc1ccccc1)C(=O)O`, the melting point stood at 80 °C. In turn, `O=C(O)c1c(Cl)c(Cl)c(Cl)c(Cl)c1Cl` came in with a melting point of 209 °C. In turn, `O=C1C(c2ccccc2)=[N+]([O-])c2cc([N+](=O)[O-])c(/C=C/c3ccccc3)cc21` registered a melting point of 233 °C. In turn, `Oc1c(Br)cc(Br)cc1Br` returned a melting point of 95.5 °C.

Regarding `Cc1noc(C)c1C#N`, the melting point was in the range of 46 to 48 °C. For the molecule `Nc1ncnc2[nH]cnc12`, the melting point lay within 360 to 365 °C. `C=C1C2CC(CC2NS(=O)(=O)c2ccc(C)cc2)C1(C)C` (stereo not drawn) yielded a melting point of 110 to 114 °C. For `COc1cc(C(=O)OCCCl)cc(OC)c1OC`, the melting point was 69 °C. Take `CC(=O)C=CC1=C(C)CCCC1(C)C`: the melting point is -49 °C. Molecule `COC(=O)C(C#N)=Cc1cc(Br)c(O)c(OC)c1` returned a melting point of 200 °C. The value for `CC1CCC2(C(=O)O)CCC3(C)C(=CCC4C5(C)CCC(O)C(C)(C)C5CCC43C)C2C1C` (stereo not drawn) was 284 °C; that for `Clc1nc(Br)ns1` was 24 to 25 °C.

In turn, `N#Cc1cc(F)c(Cl)cc1Cl` showed a melting point of 46 °C.

(Values after a melting point compilation (Tetko et al.).)
